# Experimental data from patent US20230331792A1, “NEW MULTI-FUNCTIONAL OLIGOPEPTIDES” (ENLITISA (SHANGHAI) PHARMACEUTICAL CO., LTD., priority 2019, published 2023).
# Square brackets hold non-standard residues; d marks the D form. Ends that are not written are not given here. Dopa = N[C@@H](Cc1ccc(O)c(O)c1)C(=O)O; Hyp = O=C(O)[C@@H]1C[C@@H](O)CN1
# Tests used:
# BALB/c mice = assay: Mouse ear swelling model (xylene); type: in vivo; details: for Swelling rate: about 0.1 g on right ear 1 h before xylene; for effect on edema caused by inflammation: hydrogels 0.5 and 1 mg/g
# Experimental: 30 Health male BALB/c mice with 6-8 weeks old and average body weight of 18-25 g were supplied by Changzhou Cvens Experimental Animal Co., Ltd. and housed and cared for about 1 week prior to the experiment. […] The mice were randomly divided into 6 groups as described in Table 8, with 5 mice in each group. Compound A and Compound B were dissolved at concentrations indicated in Table 8 below (L=low dose, M=medium dose, H=high dose).
# All excipients were obtained from Sinopharm Chemical Reagent Co. Ltd. The gels were made with water for injection.
# Dexamethasone acetate cream (Dex cream; 5 mg/10 g (which means that there was 5 mg Dex contained in 10 g of the cream), Fuyuan Pharmaceutical Co., Ltd., Anhui, China) was used as positive control.
# The left ear of each mouse was used as an autologous control. The right ear of each mouse was treated with the above compounds in the stated concentrations (Table 8).
# About 0.1 g of the various gels, and Dex cream were applied to the right ear of mice in each group, both inside and outside. The blank gel base was applied on the ears in the model groups. After 1 hour, 20 μL of xylene (Shanghai Aladdin Bio-Chem Technology Co., Ltd.) was applied to the same ear of each mouse.
# The mice were sacrificed by cervical dislocation 40 minutes after xylene application. The left and right ears were cut off. An EMS skin biopsy punch with a diameter of 8 mm was used to take a piece of the ear from the same site on both ears. The weights were recorded, and the swelling rate was calculated as a percentage according to the following formula:
# (right ear weight−left ear weight)/left ear weight×100
# Sprague Dawley (SD) rats = assay: Croton oil-induced anal swelling model in rats I (Evans blue content); type: in vivo; details: gel 0.5 and 1 mg/g, 200 μL twice a day for three days
# Experimental: A croton oil mixture was prepared by mixing one part distilled water, four parts of pyridine (Nanjing Chemical Reagent Co., Ltd.), five parts of ether (China Pharmaceutical Group Chemical Reagents Co., Ltd.) and ten parts of 6% croton oil (Shanghai Yuanye Biotechnology Co., Ltd.) ether solution.
# 6-8 weeks old Sprague Dawley (SD) rats with average body weights of 180-220 g were supplied by Changzhou Cvens Experimental Animal Co. Ltd. (Changzhou, Jiangsu Province, China), half male and half female. Prior to any experiments being conducted, rats were housed under standardized conditions (at a constant temperature of 22±2° C., with alternating 12-hour periods of light and darkness) and were fed on a standard mouse diet with water, for about a week.
# 56 rats were randomly divided into 7 groups (as shown in Table 11 below), with 8 rats in each group. Compound A, Compound B and MaYinglong hemorrhoids ointment were dissolved at concentrations indicated in Table 11 below (L=low dose, M=medium dose, H=high dose).
# The rats were anesthetized by isoflurane (China Pharmaceutical Group Chemical Reagents Co., Ltd.) inhalation. 75% alcohol cotton ball was used to disinfect the skin around the anus. […]
# All samples were transferred to a 55° C. water bath or a heat block. […] Absorbance was measured at 610 nm, using 500 μL of formamide as a blank. […]
# patient = assay: Radiation injury in the nasal cavity, patient case; type: in vivo, human
# Experimental: A patient was diagnosed with paranasal sinus cancer and received radiation therapy. After two weeks treatment, they had inflammation of the nose and sinuses and felt like their nose was blocked or stuffy. The mucus in the nasal cavity and paranasal sinuses became thick and dry.
# The patient used a nasal spray comprising Compound B (see Example 7 above) dissolved in water at a concentration of 0.5 mg/mL and then packed into a nasal spray bottle, once every two hours during daytime.
# person one = assay: Pain and bleeding after an operation, patient case; type: in vivo, human
# Experimental: Immediately after the operation, they used 0.5 mg/mL of Compound B spray (as described in Example 38 but packed into a normal spray bottle) to apply directly on the wound. The right pane in FIG. 10 was taken 1 hour after operation. […] The physician said that it would normally take a patient at least ten days to fully recover from such a procedure with standard care.
# [1] = 0.5 mg/mL spray directly on the wound, 1 hour after operation
substance,measurement,setting,value
{[(Dopa-Ala-Lys-Pro-Ser-Tyr-Hyp-Hyp-Thr-Tyr-Lys)2-Lys]2-Lys}2-Lys ([Dopa]AKPSY[Hyp][Hyp]TYKKKK; also: branched lysine dendrimer {[(peptide)2-Lys]2-Lys}2-Lys) [Compound A],Swelling rate,BALB/c mice; hydrogel 0.5 mg/g (L),63%
same,Swelling rate,BALB/c mice; hydrogel 1 mg/g (H),43%
same,effect on edema caused by inflammation,BALB/c mice,significantly eliminate the edema caused by inflammation
same,"inflammatory swelling, EB content in rectal and anal tissues (FIG. 5)",Sprague Dawley (SD) rats,may reduce inflammatory swelling caused by croton oil application
{[(Ala-Lys-Pro-Ser-Tyr-Hyp-Hyp-Thr-DOPA-Lys)2-Lys]2-Lys}2-Lys (AKPSY[Hyp][Hyp]T[Dopa]KKKK; also: branched lysine dendrimer {[(peptide)2-Lys]2-Lys}2-Lys) [Compound B],blocked or stuffy nose,"patient; nasal spray 0.5 mg/mL once every two hours during daytime, three days later",nose became clear and was no longer stuffy
same,nasal discomfort during continued radiation therapy,"patient; nasal spray 0.5 mg/mL, continuous use",nasal discomfort did not worsen
same,Swelling rate,BALB/c mice; hydrogel 0.5 mg/g (L),43%
same,Swelling rate,BALB/c mice; hydrogel 1 mg/g (H),38%
same,effect on edema caused by inflammation,BALB/c mice,significantly eliminate the edema caused by inflammation
same,"inflammatory swelling, EB content in rectal and anal tissues (FIG. 5)",Sprague Dawley (SD) rats,may reduce inflammatory swelling caused by croton oil application
same,bleeding of operative wound,person one; [1],bleeding had stopped
same,pain of operative wound,person one; [1],only slight pain was felt
same,wound recovery,"person one; 0.5 mg/mL spray, one week later (standard care: at least ten days)",the wound was fully recovered
